Assay results as given in BindingDB's records for doi:10.1016/j.bmcl.2015.12.063 (Aristotelian University of Thessaloniki, 2016).

Assay: Inhibition of soybean lipoxygenase assessed as formation of 13-hydroperoxylinoleic acid after 7 mins

COc1ccc2cc(C(C)C(=O)N3CCSCC3)ccc2c1 (stereo unspecified)
IC50: 12 µM
